According to patent publication US10138510B2, “Dual labeling methods for measuring cellular proliferation” (LIFE TECHNOLOGIES CORPORATION, priority 2008, dated 2018):

Tests used:
Assay type in all cases: cell-based
[1] = system: Jurkat T-cell lymphocyte cells; test: Dual pulse EdU/BrdU labeling of cellular proliferation after colchicine cell cycle block, flow cytometry
Method: A standard method of preparing cultured cells for the measurement of newly synthesized DNA (cellular proliferation) is set up according to known conditions for cells to be actively growing by providing the proper media and nutrient requirements. In the present example, Jurkat T-cell lymphocyte cell cultures were diluted one to four to a density of 2×10^5 cells/ml. The cultures were treated with a cell cycle blocking agent, colchicine, which stops proliferation at the G2M stage of the cell cycle, at concentrations of 0, 32 nM, 75 nM, 125 nM, 250 nM, 500 nM and 1 μM for 18 hours. To each condition, the first nucleoside analog, EdU, was then added at 10 μM, a concentration appropriate for incorporation in the DNA of cells undergoing DNA synthesis. The cells were grown in the presence of EdU for one hour. The cells were then centrifuged to pellet the cells and remove the media with blocking agent, and cells had replacement of fresh media. The cell cultures were allowed to recover for two hours before an appropriate amount of the second nucleoside analog, BrdU, was added at a 10 μM concentration, and the cells were grown for one hour. The cells were then harvested, washed, fixed with 70% ice-cold ETOH and stored at 4° C. until use. The cells were then washed and resuspended in 4M HCL for 20 minutes at room temperature. A phosphate/critric acid buffer was added, and the cells washed twice and resuspended in 0.1% TritonX/1% BSA/PBS at 1×10^7/ml. Then, labeling of the EdU was performed by adding click chemistry based reagents, including a solution comprised of CuSO4 in Tris-buffered saline and Alexa Fluor® 647-azide (650 nm excitation maxima/670 nm emission maxima) (Molecular Probes™/Invitrogen™, Carlsbad, Calif.). The cells were then washed with 0.1% TritonX/1% BSA/PBS. […]
A series of result graphs labeled FIGS. 12-1A, 12-1B, 12-1C, 12-1D, 12-1E, 12-2F, 12-2G, 12-2H, 12-2I and 12-2J show populations of cells treated with a first pulse label of EdU (20 μM) and a second pulse label of BrdU (10 μm) as detected by flow cytometry. […]

[2] = system: TF-1a human erythroblast cells; test: Dual pulse EdU/BrdU labeling of cellular proliferation with varying GM-CSF, flow cytometry
Method: A standard method of preparing cultured cells for the measurement of newly synthesized DNA (cellular proliferation) is set up according to known conditions for cells to be actively growing by providing the proper media and nutrient requirements. In the present example, TF-1a human erythroblast cell cultures were diluted one to four to a density of 2×10^5 cells/ml. Culture media contains varying amounts of GM-CSF, or granulocyte-macrophage colony-stimulating factor, at amounts equal to full (2 ng/ml) or ¼ (0.5 ng/ml) recommended concentration of GM-CSF, and no GM-CSF. After these cells had been growing 18 hours, the first nucleoside analog, EdU, was added at 20 μM, a concentration appropriate for incorporation in the DNA of cells undergoing DNA synthesis. The cells were grown in the presence of EdU for three hours. After initial period of growth and without the removal of EdU through the washing of the cells in fresh media, an appropriate amount of the competitive nucleoside analog, BrdU, was added at a 10 μM concentration, and GM-CSF was added at the same time as the BrdU in amounts to equal the full amount recommended for GM-CSF concentration of 2 ng/ml or kept at the same initial concentration of GM-CSF. The cells were grown for six hours. The cells were then harvested, washed, fixed with 70% ice-cold ETOH and stored at 4° C. until use. The cells were then washed and resuspended in 4M HCL for 20 minutes at room temperature. A phosphate/critric acid buffer was added, and the cells washed twice and resuspended in 0.1% TritonX/1% BSA/PBS at 1×10^7/ml. Then, labeling of the EdU was performed by adding click chemistry based reagents, including a solution comprised of CuSO4 in Tris-buffered saline and Alexa Fluor® 647-azide (650 nm excitation maxima/670 nm emission maxima) (Molecular Probes™/Invitrogen™, Carlsbad, Calif.). The cells were then washed with 0.1% TritonX/1% BSA/PBS. After this, labeling of the BrdU was performed using the anti-BrdU antibody FITC conjugate (494 nm excitation maxima/518 nm emission maxima) (Exalpha Biologicals, Inc., Maynard Calif.). To detect DNA content, a nucleic acid dye, DAPI (358 nm excitation maxima/461 nm emission maxima) (Molecular Probes™/Invitrogen™, Carlsbad, Calif.) was added. Detection of the three labels was performed by flow cytometry. To detect the BrdU label, 488 nm excitation was used, with a 530/30 nm bandpass. To detect the EdU label, 633 nm excitation was used, with a 660/20 nm bandpass. To detect DNA content, 355 nm excitation was used, with a 450/50 nm bandpass.

[3] = system: newly synthesized DNA of cells; test: Simultaneous EdU and BrdU pulse, incorporation into DNA detected by flow cytometry; conditions: for signal detected after simultaneous pulse: simultaneous pulse of EdU 20 μM and BrdU 10 μM, FIG. 3B
Source text: FIG. 3A-1, FIG. 3A-2 and FIG. 3A-3 present a series of graphs showing populations of cells treated with a first pulse label of EdU (10 μm) and a second pulse label of BrdU (10 μm) as detected by flow cytometry. The first graph (FIG. 3A-1) is divided into four quadrants with the first quadrant (Q1) located in the upper left hand corner, the second quadrant (Q2) located in the upper right hand corner, the third quadrant (Q3) located in the lower left hand corner, and the fourth quadrant (Q4) located in the lower right hand corner. Populations of cells in quadrant Q3 (lower left) are negative for both EdU (first pulse) and BrdU (second pulse). Populations of cells in quadrant Q2 (upper right) are positive for both EdU (first pulse) and BrdU (second pulse). FIG. 3A-2 is a graph of EdU vs. DNA cell cycle with gating P5>P1. […] FIG. 3B presents a graph showing populations of cells treated with simultaneous pulse of EdU at a concentration of 20 μM and BrdU at a concentration of 10 μM as detected by flow cytometry. The graph is divided into four quadrants with the first quadrant (Q1) located in the upper left hand corner, the second quadrant (Q2) located in the upper right hand corner, the third quadrant (Q3) located in the lower left hand corner, and the fourth quadrant (Q4) located in the lower right hand corner. Populations of cells in quadrant Q3 (lower left) are negative for both EdU and BrdU. Populations of cells in quadrant Q2 (upper right) are positive for both EdU and BrdU.
FIG. 5A, FIG. 5B, FIG. 5C and FIG. 5D present a series of graphs showing that when cells are treated with EdU and BrdU simultaneously, only a population of DNA labeled with BrdU is detected by flow cytometry. […] The third and fourth graphs (FIGS. 5C and 5D, respectively) show the dual parameter plot of fluorescent nucleotide label vs. DNA cell cycle treated with EdU and BrdU simultaneously. Only BrdU was incorporated into cells treated simultaneously with EdU and BrdU, as shown in the third and fourth graphs. […]

[4] = GM-CSF 0.5 ng/ml with EdU pulse, 0.5 ng/ml with BrdU pulse
[5] = GM-CSF 0.5 ng/ml with EdU pulse, 2 ng/ml with BrdU pulse
[6] = GM-CSF 2 ng/ml (control) with EdU pulse, 2 ng/ml (control) with BrdU pulse, EdU 20 μM 3 h, BrdU 10 μM 6 h
[7] = no GM-CSF with EdU pulse, GM-CSF 2 ng/ml with BrdU pulse

Compound: COc1cc2c(c(OC)c1OC)-c1ccc(OC)c(=O)cc1[C@@H](NC(C)=O)CC2 [colchicine]
- proliferation (EdU and BrdU positive events) vs control ([1]; 32 nM colchicine for 18 hours before the first pulse, FIGS. 12-2F to 12-2J): decreased proliferation
- proliferation with both pulses of EdU and BrdU ([1]; all colchicine concentrations (32 nM to 1 μM), 18 hours, FIG. 11): decreased proliferation
- recovery of proliferation after removal of colchicine (second pulse of BrdU) ([1]; any colchicine concentration, two hours recovery in fresh media): no recovery

Compound: GM-CSF: granulocyte-macrophage colony-stimulating factor, growth factor in TF-1a culture media
- proliferative recovery of cells ([2]; 0.5 ng/ml GM-CSF, addition of GM-CSF to 2 ng/ml with the BrdU pulse): does not show any proliferative recovery
- % BrdU Pos [2, 4]: 66.3%
- % EdU Pos [2, 4]: 57%
- % BrdU Pos [2, 5]: 65.1%
- % EdU Pos [2, 5]: 57.5%
- % BrdU Pos [2, 6]: 72.2%
- % EdU Pos [2, 6]: 53.9%
- proliferation over control ([2]; dual pulse with 0.5 ng/ml GM-CSF vs 2 ng/ml control): only a slight decrease of proliferation over control
- % BrdU Pos [2, 7]: 53%
- % EdU Pos [2, 7]: 42.3%
- proliferative recovery of cells (BrdU positivity) ([2]; no GM-CSF with EdU pulse, GM-CSF added with just the BrdU pulse): some proliferative recovery

Compound: O=c1[nH]c(=O)n([C@H]2C[C@H](O)[C@@H](CO)O2)cc1Br [BrdU, 5-bromo 2′-deoxyuridine]
- incorporation into DNA in the presence of both nucleoside analogs ([3]; EdU and BrdU added simultaneously, Example 3, FIGS. 5A-5D): only the BrdU analog is incorporated into the DNA
- signal detected after simultaneous pulse [3]: only positive signal detected from the BrdU

Compound: C#Cc1cn([C@H]2C[C@H](O)[C@@H](CO)O2)c(=O)[nH]c1=O [EdU, 5-ethynyl 2′-deoxyuridine]
- signal detected after simultaneous pulse [3]: no signal detected
